# Data: ChEMBL document CHEMBL5291721, “A preclinical secondary pharmacology resource illuminates target-adverse drug reaction associations of marketed drugs” (Nat Commun, 2023)
# Tests used:
# Adenosine receptor A1 = target: T1, Adenosine receptor A1 (Homo sapiens, UniProt P30542)
# T1 sequence (P30542 whole entry): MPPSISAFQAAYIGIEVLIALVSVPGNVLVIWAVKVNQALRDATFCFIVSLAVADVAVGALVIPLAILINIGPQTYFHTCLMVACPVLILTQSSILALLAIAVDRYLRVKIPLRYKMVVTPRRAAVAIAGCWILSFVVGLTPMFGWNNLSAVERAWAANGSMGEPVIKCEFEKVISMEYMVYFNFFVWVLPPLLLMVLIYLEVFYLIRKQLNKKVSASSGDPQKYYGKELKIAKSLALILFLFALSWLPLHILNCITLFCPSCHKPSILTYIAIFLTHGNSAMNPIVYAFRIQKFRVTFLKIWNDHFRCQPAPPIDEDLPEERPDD
# [1] = target: T2, Alpha-2A adrenergic receptor (Homo sapiens, UniProt P08913); assay type: functional, cell-based
# T2 sequence (P08913 whole entry): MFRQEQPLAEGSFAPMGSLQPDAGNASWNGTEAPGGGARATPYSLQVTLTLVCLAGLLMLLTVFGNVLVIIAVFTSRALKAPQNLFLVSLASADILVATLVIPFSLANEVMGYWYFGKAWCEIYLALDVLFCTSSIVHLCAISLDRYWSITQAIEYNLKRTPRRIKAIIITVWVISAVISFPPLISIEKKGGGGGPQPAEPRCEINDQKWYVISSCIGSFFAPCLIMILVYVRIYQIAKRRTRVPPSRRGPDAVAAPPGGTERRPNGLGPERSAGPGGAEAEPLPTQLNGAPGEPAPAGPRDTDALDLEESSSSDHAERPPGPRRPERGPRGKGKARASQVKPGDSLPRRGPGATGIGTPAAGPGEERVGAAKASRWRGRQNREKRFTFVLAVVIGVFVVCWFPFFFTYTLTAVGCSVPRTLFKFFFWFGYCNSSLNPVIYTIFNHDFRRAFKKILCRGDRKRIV
# [2] = target: T3, Alpha-2B adrenergic receptor (Homo sapiens, UniProt P18089)
# T3 sequence (P18089 whole entry): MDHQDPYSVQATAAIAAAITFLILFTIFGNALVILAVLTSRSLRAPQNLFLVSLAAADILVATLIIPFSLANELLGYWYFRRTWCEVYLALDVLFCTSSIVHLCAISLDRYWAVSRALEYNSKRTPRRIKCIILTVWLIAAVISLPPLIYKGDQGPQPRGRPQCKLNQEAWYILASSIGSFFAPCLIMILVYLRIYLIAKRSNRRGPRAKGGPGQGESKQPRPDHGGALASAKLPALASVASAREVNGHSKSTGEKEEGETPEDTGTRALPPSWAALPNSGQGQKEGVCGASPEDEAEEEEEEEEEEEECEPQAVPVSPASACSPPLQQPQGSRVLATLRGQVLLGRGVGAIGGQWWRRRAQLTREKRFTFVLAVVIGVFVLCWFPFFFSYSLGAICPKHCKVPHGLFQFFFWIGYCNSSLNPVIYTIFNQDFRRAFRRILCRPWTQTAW
# Cannabinoid receptor 1 = Cannabinoid receptor 1 (Homo sapiens, UniProt P21554); assay type: functional, cell-based
# Sequence of Cannabinoid receptor 1 (P21554 whole entry): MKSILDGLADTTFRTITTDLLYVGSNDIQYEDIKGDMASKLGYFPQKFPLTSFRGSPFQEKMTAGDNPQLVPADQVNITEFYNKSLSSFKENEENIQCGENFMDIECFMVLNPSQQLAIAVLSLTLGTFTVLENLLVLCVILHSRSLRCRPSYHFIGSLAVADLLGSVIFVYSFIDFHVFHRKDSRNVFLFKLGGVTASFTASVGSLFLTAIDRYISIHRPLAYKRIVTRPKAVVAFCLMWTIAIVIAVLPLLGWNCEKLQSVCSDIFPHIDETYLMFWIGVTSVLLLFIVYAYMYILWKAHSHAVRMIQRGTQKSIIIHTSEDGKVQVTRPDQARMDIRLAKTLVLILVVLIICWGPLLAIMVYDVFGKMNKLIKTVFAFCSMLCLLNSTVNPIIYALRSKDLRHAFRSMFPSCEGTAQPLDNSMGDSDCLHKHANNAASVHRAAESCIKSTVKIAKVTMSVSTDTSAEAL
# [3] = target: Glutamate receptor ionotropic, NMDA 1 (Rattus norvegicus, UniProt P35439)
# [4] = target: T4, 5-hydroxytryptamine receptor 3A (Homo sapiens, UniProt P46098); assay type: functional
# T4 sequence (P46098 whole entry): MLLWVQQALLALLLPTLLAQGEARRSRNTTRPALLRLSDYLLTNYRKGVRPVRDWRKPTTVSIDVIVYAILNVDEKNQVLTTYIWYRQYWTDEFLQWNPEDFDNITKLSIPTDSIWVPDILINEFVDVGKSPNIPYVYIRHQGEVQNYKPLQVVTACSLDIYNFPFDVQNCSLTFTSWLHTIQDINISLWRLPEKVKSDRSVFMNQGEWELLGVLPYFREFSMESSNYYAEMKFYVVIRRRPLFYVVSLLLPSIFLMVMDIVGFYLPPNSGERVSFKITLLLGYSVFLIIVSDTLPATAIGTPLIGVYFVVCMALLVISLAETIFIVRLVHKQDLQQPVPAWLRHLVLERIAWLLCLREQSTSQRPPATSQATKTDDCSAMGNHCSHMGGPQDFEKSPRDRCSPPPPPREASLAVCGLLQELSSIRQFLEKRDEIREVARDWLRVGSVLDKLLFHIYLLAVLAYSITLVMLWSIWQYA
# [5] = target: Voltage-gated inwardly rectifying potassium channel KCNH2 (Homo sapiens, UniProt Q12809); assay type: functional; settings: read-out: AC50
# Sequence of Voltage-gated inwardly rectifying potassium channel KCNH2 (Q12809 whole entry): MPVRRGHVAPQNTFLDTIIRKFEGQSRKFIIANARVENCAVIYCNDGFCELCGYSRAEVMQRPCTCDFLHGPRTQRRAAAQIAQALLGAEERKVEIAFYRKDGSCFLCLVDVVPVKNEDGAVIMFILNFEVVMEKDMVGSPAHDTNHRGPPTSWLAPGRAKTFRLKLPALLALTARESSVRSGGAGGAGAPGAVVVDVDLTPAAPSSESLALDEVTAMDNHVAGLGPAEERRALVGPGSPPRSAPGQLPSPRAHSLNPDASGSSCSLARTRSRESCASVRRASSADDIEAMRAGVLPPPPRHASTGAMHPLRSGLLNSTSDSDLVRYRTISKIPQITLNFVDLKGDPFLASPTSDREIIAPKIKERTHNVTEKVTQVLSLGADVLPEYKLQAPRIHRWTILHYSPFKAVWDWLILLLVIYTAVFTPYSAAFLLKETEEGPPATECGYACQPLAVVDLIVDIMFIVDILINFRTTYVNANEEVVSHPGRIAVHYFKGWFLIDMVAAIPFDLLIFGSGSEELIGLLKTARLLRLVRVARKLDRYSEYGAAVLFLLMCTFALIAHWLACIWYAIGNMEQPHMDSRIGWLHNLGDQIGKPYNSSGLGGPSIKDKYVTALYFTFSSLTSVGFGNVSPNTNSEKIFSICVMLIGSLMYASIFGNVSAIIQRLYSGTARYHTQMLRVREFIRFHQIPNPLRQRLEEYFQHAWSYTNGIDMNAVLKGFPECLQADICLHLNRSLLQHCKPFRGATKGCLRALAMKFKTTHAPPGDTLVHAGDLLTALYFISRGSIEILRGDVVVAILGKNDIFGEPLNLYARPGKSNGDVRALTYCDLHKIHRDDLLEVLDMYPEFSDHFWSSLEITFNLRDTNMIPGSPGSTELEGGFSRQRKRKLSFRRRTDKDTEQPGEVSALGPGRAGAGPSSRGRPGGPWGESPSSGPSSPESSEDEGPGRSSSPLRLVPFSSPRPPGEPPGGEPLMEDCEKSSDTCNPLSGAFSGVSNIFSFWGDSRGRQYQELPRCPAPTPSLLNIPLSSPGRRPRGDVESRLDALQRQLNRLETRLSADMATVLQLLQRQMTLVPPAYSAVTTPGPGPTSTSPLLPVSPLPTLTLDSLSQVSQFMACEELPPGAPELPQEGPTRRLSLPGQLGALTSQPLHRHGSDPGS
# Motilin receptor = Motilin receptor (Homo sapiens, UniProt O43193)
# Sequence of Motilin receptor (O43193 whole entry): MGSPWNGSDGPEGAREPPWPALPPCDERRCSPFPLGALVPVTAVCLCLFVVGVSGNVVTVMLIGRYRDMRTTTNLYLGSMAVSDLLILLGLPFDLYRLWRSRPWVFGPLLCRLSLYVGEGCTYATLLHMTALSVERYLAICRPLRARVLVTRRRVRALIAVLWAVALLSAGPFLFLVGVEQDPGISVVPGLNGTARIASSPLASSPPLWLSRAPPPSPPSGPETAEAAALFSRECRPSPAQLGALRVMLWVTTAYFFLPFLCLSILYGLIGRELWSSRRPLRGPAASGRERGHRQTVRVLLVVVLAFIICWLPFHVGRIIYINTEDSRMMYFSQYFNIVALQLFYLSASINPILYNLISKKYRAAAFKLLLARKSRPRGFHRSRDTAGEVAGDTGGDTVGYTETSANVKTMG
# Thromboxane A2 receptor = target: T5, Thromboxane A2 receptor (Homo sapiens, UniProt P21731)
# T5 sequence (P21731 whole entry): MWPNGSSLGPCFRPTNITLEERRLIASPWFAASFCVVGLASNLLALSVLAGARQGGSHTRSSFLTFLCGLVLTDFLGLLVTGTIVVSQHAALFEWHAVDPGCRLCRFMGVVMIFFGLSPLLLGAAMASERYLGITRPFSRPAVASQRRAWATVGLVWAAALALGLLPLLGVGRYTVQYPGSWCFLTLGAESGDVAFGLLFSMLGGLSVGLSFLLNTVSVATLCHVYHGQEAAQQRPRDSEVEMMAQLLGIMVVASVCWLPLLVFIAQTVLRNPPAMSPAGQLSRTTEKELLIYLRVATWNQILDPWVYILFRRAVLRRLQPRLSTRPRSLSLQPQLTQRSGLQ
# [6] = target: Sodium-dependent noradrenaline transporter (Homo sapiens, UniProt P23975)
# Sequence of Sodium-dependent noradrenaline transporter (P23975 whole entry): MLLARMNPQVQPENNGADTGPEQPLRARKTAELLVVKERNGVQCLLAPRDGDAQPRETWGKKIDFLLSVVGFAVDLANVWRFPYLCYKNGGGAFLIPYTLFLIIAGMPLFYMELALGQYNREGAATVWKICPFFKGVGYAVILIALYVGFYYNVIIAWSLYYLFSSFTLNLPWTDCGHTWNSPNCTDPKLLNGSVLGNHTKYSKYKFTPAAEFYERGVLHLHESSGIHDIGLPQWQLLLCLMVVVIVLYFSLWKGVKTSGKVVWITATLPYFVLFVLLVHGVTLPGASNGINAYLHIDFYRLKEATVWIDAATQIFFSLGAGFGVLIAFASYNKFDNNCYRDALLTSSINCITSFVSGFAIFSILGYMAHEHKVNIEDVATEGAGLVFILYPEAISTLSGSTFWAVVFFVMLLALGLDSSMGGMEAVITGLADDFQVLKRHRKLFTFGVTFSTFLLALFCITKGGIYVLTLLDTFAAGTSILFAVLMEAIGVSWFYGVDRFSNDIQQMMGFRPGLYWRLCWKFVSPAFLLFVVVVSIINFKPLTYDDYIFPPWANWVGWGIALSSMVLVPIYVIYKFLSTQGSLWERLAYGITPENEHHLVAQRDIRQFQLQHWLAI
# [7] = target: cGMP-inhibited 3',5'-cyclic phosphodiesterase 3A (Homo sapiens, UniProt Q14432); assay type: functional
# Sequence of cGMP-inhibited 3',5'-cyclic phosphodiesterase 3A (Q14432 whole entry): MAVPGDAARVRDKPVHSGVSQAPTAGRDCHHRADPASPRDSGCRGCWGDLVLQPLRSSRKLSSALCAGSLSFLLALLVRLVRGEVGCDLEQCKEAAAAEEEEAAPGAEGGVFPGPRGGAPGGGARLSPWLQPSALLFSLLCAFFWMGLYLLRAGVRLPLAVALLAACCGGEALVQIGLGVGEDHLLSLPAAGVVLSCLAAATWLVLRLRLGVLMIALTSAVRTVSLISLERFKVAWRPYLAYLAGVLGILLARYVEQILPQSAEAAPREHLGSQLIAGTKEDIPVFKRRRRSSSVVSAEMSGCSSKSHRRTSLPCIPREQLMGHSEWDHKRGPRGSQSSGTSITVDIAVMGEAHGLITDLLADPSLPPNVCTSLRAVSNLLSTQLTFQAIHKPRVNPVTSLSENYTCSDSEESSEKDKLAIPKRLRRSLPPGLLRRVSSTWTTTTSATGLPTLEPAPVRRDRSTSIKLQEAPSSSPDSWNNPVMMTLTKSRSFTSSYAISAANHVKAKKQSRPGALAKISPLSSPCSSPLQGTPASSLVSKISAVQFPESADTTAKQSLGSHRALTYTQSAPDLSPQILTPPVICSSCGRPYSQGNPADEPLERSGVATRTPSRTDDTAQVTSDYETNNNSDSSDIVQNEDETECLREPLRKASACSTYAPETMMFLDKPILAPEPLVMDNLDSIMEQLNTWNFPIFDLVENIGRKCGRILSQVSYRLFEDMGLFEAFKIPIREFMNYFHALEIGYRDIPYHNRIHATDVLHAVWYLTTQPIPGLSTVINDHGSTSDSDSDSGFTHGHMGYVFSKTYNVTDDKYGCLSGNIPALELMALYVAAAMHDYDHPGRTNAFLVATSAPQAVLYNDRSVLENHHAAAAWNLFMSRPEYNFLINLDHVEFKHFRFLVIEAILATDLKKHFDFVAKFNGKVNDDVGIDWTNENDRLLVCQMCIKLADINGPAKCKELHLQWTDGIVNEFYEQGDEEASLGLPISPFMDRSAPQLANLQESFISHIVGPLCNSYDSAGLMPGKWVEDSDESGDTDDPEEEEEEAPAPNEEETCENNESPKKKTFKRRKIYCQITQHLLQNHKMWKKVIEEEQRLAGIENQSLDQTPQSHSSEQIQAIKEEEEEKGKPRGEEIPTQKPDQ
# [8] = target: T6, Alpha-1A adrenergic receptor (Homo sapiens, UniProt P35348); assay type: functional, cell-based
# T6 sequence (P35348 whole entry): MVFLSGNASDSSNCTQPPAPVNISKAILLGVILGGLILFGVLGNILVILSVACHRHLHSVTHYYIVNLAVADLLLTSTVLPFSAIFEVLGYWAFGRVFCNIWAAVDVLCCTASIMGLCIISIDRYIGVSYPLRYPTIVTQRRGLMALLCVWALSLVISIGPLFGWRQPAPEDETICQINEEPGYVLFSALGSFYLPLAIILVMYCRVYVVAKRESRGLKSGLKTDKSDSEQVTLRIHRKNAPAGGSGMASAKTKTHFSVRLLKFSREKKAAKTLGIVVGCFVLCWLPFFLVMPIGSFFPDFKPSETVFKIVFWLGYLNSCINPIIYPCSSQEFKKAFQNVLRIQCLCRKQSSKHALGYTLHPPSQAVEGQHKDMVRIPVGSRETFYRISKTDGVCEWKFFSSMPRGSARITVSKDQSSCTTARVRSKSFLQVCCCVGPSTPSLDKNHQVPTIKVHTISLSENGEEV
# Also: assay procedure not described here.
Compound,AC50 (Adenosine receptor A1),AC50 [1],AC50 [2],AC50 (Cannabinoid receptor 1),AC50 [3],AC50 [4],AC50 [5],AC50 (Motilin receptor),AC50 (Thromboxane A2 receptor),AC50 [6],AC50 [7],AC50 [8]
CCN(CC)CCCN(c1ccccc1)C1Cc2ccccc2C1 [APRINDINE],> 30 µM,> 30 µM,> 30 µM,> 30 µM,> 30 µM,> 30 µM,1 µM,> 30 µM,> 10 µM,2.3 µM,> 30 µM,14 µM
CN1CCCN=C1/C=C/c1cccc(O)c1 [OXANTEL],> 30 µM,> 30 µM,> 30 µM,> 30 µM,> 30 µM,> 30 µM,6.2 µM,> 30 µM,> 30 µM,–,> 30 µM,> 30 µM
CN1C(=O)CN=C(c2ccccc2F)c2cc([N+](=O)[O-])ccc21 [FLUNITRAZEPAM],> 30 µM,> 10 µM,> 10 µM,> 30 µM,> 10 µM,> 10 µM,> 30 µM,> 10 µM,> 30 µM,> 10 µM,> 30 µM,> 30 µM
CCN(CC)Cc1nccn1-c1ccc([N+](=O)[O-])cc1C(=O)c1ccccc1Cl [NIZOFENONE],> 30 µM,> 30 µM,> 10 µM,> 30 µM,> 30 µM,> 30 µM,1.38 µM,> 30 µM,> 30 µM,> 30 µM,> 30 µM,> 30 µM
Oc1cc(O)c2c(c1)O[C@H](c1ccc(O)c(O)c1)[C@@H](O)C2 [CIANIDANOL],> 30 µM,> 10 µM,> 10 µM,> 30 µM,> 10 µM,> 30 µM,> 30 µM,> 10 µM,> 30 µM,> 30 µM,> 30 µM,> 30 µM
Cc1ccc(-c2ncc(Cl)cc2-c2ccc(S(C)(=O)=O)cc2)cn1 [ETORICOXIB],> 10 µM,> 10 µM,> 10 µM,> 30 µM,> 10 µM,> 10 µM,> 30 µM,> 10 µM,> 10 µM,> 10 µM,> 10 µM,> 30 µM
CC(=O)Oc1cccc2c1C(=O)c1c(OC(C)=O)cc(C(=O)O)cc1C2=O [DIACEREIN],24 µM,–,> 30 µM,> 30 µM,> 30 µM,> 30 µM,> 30 µM,> 30 µM,> 30 µM,13 µM,> 30 µM,13 µM
CN(C)CCOCC(=O)NC12CC3CC(CC(C3)C1)C2 [TROMANTADINE],> 30 µM,> 30 µM,> 30 µM,> 30 µM,> 30 µM,> 30 µM,> 30 µM,> 30 µM,> 30 µM,> 30 µM,> 30 µM,> 30 µM
COc1ccc(-n2nc(C(N)=O)c3c2C(=O)N(c2ccc(N4CCCCC4=O)cc2)CC3)cc1 [APIXABAN],> 30 µM,> 30 µM,> 30 µM,> 30 µM,> 30 µM,> 30 µM,> 30 µM,> 30 µM,–,> 30 µM,> 30 µM,> 30 µM
CCN1C(=O)NC(c2ccccc2)C1=O (configuration not stated) [ETHOTOIN],> 30 µM,> 30 µM,> 30 µM,> 30 µM,> 30 µM,> 30 µM,> 30 µM,> 30 µM,–,> 30 µM,> 30 µM,> 30 µM
COC(=O)c1ccc2c(c1)NC(=O)/C2=C(\Nc1ccc(N(C)C(=O)CN2CCN(C)CC2)cc1)c1ccccc1 [NINTEDANIB],> 30 µM,> 30 µM,11 µM,> 30 µM,> 30 µM,> 30 µM,9.1 µM,> 30 µM,–,> 30 µM,> 30 µM,> 30 µM
